# Patent publication US20070224253A1, “Transdermal Delivery of Meptazinol” (Shire Pharmaceuticals Inc., priority 2005, published 2007)
# Where “and” joins values, the source holds several entries; their conditions need not be identical. Equal values may be shown once. Entries after “also recorded” stand apart in the source; their conditions may differ. Where a name gives a salt, the structure may show the parent alone. Marks after values point to notes of the source that are not given here.
# Experiments:
# Aqueous solubility = format: physicochemical; conditions: aqueous solution
# [1] = Saturated solubility in potential delivery vehicle (oleic acid/dimethyl isosorbide/propylene glycol); conditions: in 2% oleic acid: 2% dimethyl isosorbide: 96% propylene glycol; for solubility: 2% oleic acid: 2% dimethyl isosorbide: 96% propylene glycol, 32 °C, organic solvent or mixture, thermodynamic from solid, Solubility at 32° C.
# [2] = cited from earlier work
# [3] = Transdermal permeation through human skin in Franz cell in vitro apparatus; conditions: for Skin flux / permeation compared with other forms (in words): Franz cell; for Flux: individual Franz cell/donor; for Flux / Mean flux ± sd: vehicle 2% oleic acid: 2% dimethyl isosorbide: 96% propylene glycol; for Mean flux ± sd: mean over donors
# [4] = Yellow discoloration of the meptazinol gel on standing, effect of antioxidants; format: physicochemical; conditions: antioxidant included in meptazinol gel; BHT 0.02-0.05%, ascorbic acid 0.05%
# [5] = estimated from visual assessment only
# [6] = listed as M HCl (1), hydrochloride
# [7] = listed as M HCl (2), hydrochloride
compound,measurement,setting,value
"CCC1(c2cccc(O)c2)CCCCN(C)C1 (stereo not drawn) [Meptazinol free base, Meptazinol]",solubility,Aqueous solubility,0.17 mg/mL
same,solubility,[1]; [5],~20 mg/mL
same,Plasma half-life,[2]; in vivo,1.5 to 2.0 h
same,Fraction of an oral dose removed by first pass metabolism through the liver,[2]; oral,up to 98.1%
same,"Oral bioavailability, reported mean values",[2]; oral,4-9%
same,Skin flux / permeation compared with other forms (in words),[3],unexpectedly poor flux in comparison to the various salt forms
CC1(C)C2CCC1(CS(=O)(=O)O)C(=O)C2.CCC1(c2cccc(O)c2)CCCCN(C)C1 (stereo not drawn) [Meptazinol camsylate],Solubility at 32° C.,[1]; [5],˜250** mg/ml
same,Skin flux / permeation compared with other forms (in words),[3],less effective in improving flux
same,Flux,[3]; listed as M camsylate,78.1 ug/cm^2/h and 110.9 ug/cm^2/h and 27.3 ug/cm^2/h and 45.1 ug/cm^2/h and 204.2 ug/cm^2/h and 9.5 ug/cm^2/h
same,Mean flux ± sd,[3],79.2 ± 71.2 ug/cm^2/h
O=C1O[C@H]([C@@H](O)CO)C(O)=C1O [Ascorbic acid],Effect on yellow discoloration of the gel,[4],some reduction
Meptazinol trifluoroacetate,Solubility at 32° C.,[1]; measured by HPLC,170* mg/ml
same,Skin flux / permeation compared with other forms (in words),[3],more rapidly absorbed
same,Flux,[3]; listed as M TFA,29.1 ug/cm^2/h and 422.2 ug/cm^2/h and 163.8 ug/cm^2/h and 282.3 ug/cm^2/h
same,Mean flux ± sd,[3],224.4 ± 167.6 ug/cm^2/h
Oc1cccc(O)c1O [pyrogallol],Effect on yellow discoloration of the gel,[4],did not
Cc1cc(C(C)(C)C)c(O)c(C(C)(C)C)c1 [butylated hydroxy toluene],Effect on yellow discoloration of the gel,[4],completely eliminated
"CCC1(c2cccc(O)c2)CCCCN(C)C1 (stereo not drawn) [Meptazinol hydrochloride, reference compound]",solubility,[1]; measured by HPLC,78 mg/mL
same,Skin flux / permeation compared with other forms (in words),"[3]; listed as hydrochloride, hydrochloride",more rapidly absorbed
same,Skin flux / permeation compared with other forms (in words),"[3]; listed as meptazinol hydrochloride, hydrochloride",much better permeant than the maleate; also recorded: higher flux rate than the camsylate; also recorded: substantially greater flux than the free base; also recorded: several times better than the meptazinol free base
same,Flux,[3]; [6],135.7 ug/cm^2/h and 218.0 ug/cm^2/h and 132.6 ug/cm^2/h and 197.1 ug/cm^2/h and 194.0 ug/cm^2/h and 162.5 ug/cm^2/h
same,Flux,[3]; [7],66.5 ug/cm^2/h and 222.6 ug/cm^2/h and 213.4 ug/cm^2/h (2×)
same,Mean flux ± sd,[3]; [6],173.3 ± 35.2 ug/cm^2/h
same,Mean flux ± sd,[3]; [7],179.0 ± 75.1 ug/cm^2/h
COc1ccc(O)c(C(C)(C)C)c1 [butylated hydroxy anisole],Effect on yellow discoloration of the gel,[4],did not
Cc1c(C)c2c(c(C)c1O)CC[C@@](C)(CCC[C@H](C)CCC[C@H](C)CCCC(C)C)O2 [alpha tocopherol],Effect on yellow discoloration of the gel,[4],did not
Meptazinol maleate,Solubility at 32° C.,[1]; measured by HPLC,105* mg/ml
same,Flux,[3]; listed as M maleate,41.3 ug/cm^2/h and 91.3 ug/cm^2/h and 85.3 ug/cm^2/h and 93.9 ug/cm^2/h
same,Mean flux ± sd,[3],78.0 ± 24.7 ug/cm^2/h
Meptazinol tosylate,Solubility at 32° C.,[1]; [5],˜140** mg/ml
same,Skin flux / permeation compared with other forms (in words),[3],less effective in improving flux
same,Flux,[3]; listed as M tosylate,158.8 ug/cm^2/h and 165.0 ug/cm^2/h and 90.9 ug/cm^2/h and 39.6 ug/cm^2/h and 273.7 ug/cm^2/h and 87.4 ug/cm^2/h
same,Mean flux ± sd,[3],135.9 ± 82.5 ug/cm^2/h
